Molecular target: Neuraminidase (Influenza A virus (A/Puerto Rico/8/1934(H1N1)), UniProt P03468)
Assay: Inhibition of neuraminidase of influenza A

In order of falling IC50:
1. CC(=O)N[C@@H]1[C@@H](N)CC(C(=O)O)=C[C@H]1NC(=O)C(C)C  6400 nM
2. CCC(CC)C(=O)N[C@@H]1C=C(C(=O)O)C[C@H](N)[C@H]1NC(C)=O  4000 nM
3. CCC(=O)N[C@@H]1C=C(C(=O)O)C[C@H](N)[C@H]1NC(C)=O  2700 nM
4. CC(=O)N[C@H]1[C@H](N(C)C2CCCCC2)C=C(C(=O)O)C[C@@H]1N  200 nM
5. CCCN[C@@H]1C=C(C(=O)O)C[C@H](N)[C@H]1NC(C)=O  200 nM
6. CCCCN(C)[C@@H]1C=C(C(=O)O)C[C@H](N)[C@H]1NC(C)=O  180 nM
7. CC(=O)N[C@H]1[C@H](N(C)CCc2ccccc2)C=C(C(=O)O)C[C@@H]1N  100 nM
8. CCCN(CC)[C@@H]1C=C(C(=O)O)C[C@H](N)[C@H]1NC(C)=O  90 nM
9. CCCCN(CC)[C@@H]1C=C(C(=O)O)C[C@H](N)[C@H]1NC(C)=O  85 nM
10. CCCN(CCC)[C@@H]1C=C(C(=O)O)C[C@H](N)[C@H]1NC(C)=O  12 nM
11. CCC(CC)N[C@@H]1C=C(C(=O)O)C[C@H](N)[C@H]1NC(C)=O  11 nM
12. CCC(CC)N(C)[C@@H]1C=C(C(=O)O)C[C@H](N)[C@H]1NC(C)=O  6 nM

From ChEMBL document CHEMBL1130686, “A new series of C3-aza carbocyclic influenza neuraminidase inhibitors: synthesis and inhibitory activity” (Bioorg Med Chem Lett, 1998)
